Holding throughout (format): cell-based
The subject of experiment [1] is Fusarium graminearum. Particulars: Table 2C (mixed diversity library); improvement compared to reference defensin protein DmAMP.
The test system of experiment [2] is Mycosphaerella fijiensis.
The subject of experiment [3] is Septoria tritici.
Experiment [4] has as its system Fusarium graminearum.
Where [5] appears, read: Measurement taken at 144 hours after inoculation, fold improvement compared to DmAMP1.
[6] abbreviates: Measurement taken at 72 hours after inoculation, fold improvement compared to DmAMP1.

Read-outs that look alike come from different tables or passages of the source.

These results are taken from patent US7785828B1 (priority 2003, dated 2010).

“DGVKLCEKPSKTWSGHCGNTKHCDTQCRNWEKAKHGACHVRNGKWKCFCYFNC (Defensin like) [L7-392]”: in experiment [1], the “Activity (1): antifungal activity of the NP against Fusarium graminearium” value (from here on “Activity (1): antifungal activity”) is “+++ (+++ indicates a >10-fold improvement)”. Besides, the “Antifungal activity, Mycosphaerella fijiensis (improvement compared to DmAMP1)” value in experiment [2] (setting [5]) is on record as “+ (+ indicating 1- to 5-fold improvement compared to DmAMP1)”. Further, the “Antifungal activity, Septoria tritici (improvement compared to DmAMP1)” value in experiment [3] (setting [5]) is on record as “+ (+ indicating 1- to 5-fold improvement compared to DmAMP1)”. Besides, the “Antifungal activity, Fusarium graminearum (improvement compared to DmAMP1)” value in experiment [4] (setting [6]) is reported as “+ (+ indicating 1- to 5-fold improvement compared to DmAMP1)”.

On to “DGVKLCEKPSQTWTGNCGNTKHCDTQCRNWEGAKHGACHKRNGKWKCFCYFNC (Defensin like) [L7-427]”, for which, in experiment [1], the “Activity (1): antifungal activity” value is “++ (++ indicates a >5- to 10-fold improvement)”. For the same sequence, in experiment [2] (setting [5]), the “Antifungal activity, Mycosphaerella fijiensis (improvement compared to DmAMP1)” value was “+ (+ indicating 1- to 5-fold improvement compared to DmAMP1)”. In addition, the “Antifungal activity, Septoria tritici (improvement compared to DmAMP1)” value in experiment [3] (setting [5]) was “+ (+ indicating 1- to 5-fold improvement compared to DmAMP1)”. Further, the “Antifungal activity, Fusarium graminearum (improvement compared to DmAMP1)” value in experiment [4] (setting [6]) was “++ (++ indicating >5- to 10-fold improvement)”.

Turning to “DGVKLCERASKTWSGHCGNTKHCDNQCRSWEGAKHGACHVRNGKWKCFCYFNC (Defensin like) [L7-452]”, the “Activity (1): antifungal activity” value in experiment [1] is recorded as “+++ (+++ indicates a >10-fold improvement)”. For the same sequence, the “Antifungal activity, Mycosphaerella fijiensis (improvement compared to DmAMP1)” value in experiment [2] (setting [5]) is reported as “+ (+ indicating 1- to 5-fold improvement compared to DmAMP1)”. Besides, in experiment [3] (setting [5]), the “Antifungal activity, Septoria tritici (improvement compared to DmAMP1)” value is given as “+ (+ indicating 1- to 5-fold improvement compared to DmAMP1)”. Also, in experiment [4] (setting [6]), the “Antifungal activity, Fusarium graminearum (improvement compared to DmAMP1)” value is listed as “++ (++ indicating >5- to 10-fold improvement)”.

As for “DGVKLCERASKTWTGNCGNTKHCDKQCKNWEGAKHGACHVRNGKWKCFCYFNC (Defensin like) [L7-449]”, in experiment [1], the “Activity (1): antifungal activity” value was “++ (++ indicates a >5- to 10-fold improvement)”. The “Antifungal activity, Mycosphaerella fijiensis (improvement compared to DmAMP1)” value in experiment [2] (setting [5]) is given as “+ (+ indicating 1- to 5-fold improvement compared to DmAMP1)”. The “Antifungal activity, Septoria tritici (improvement compared to DmAMP1)” value in experiment [3] (setting [5]) is on record as “++ (++ indicating >5- to 10-fold improvement)”. Besides, the “Antifungal activity, Fusarium graminearum (improvement compared to DmAMP1)” value in experiment [4] (setting [6]) was “+++ (+++ indicating >10-fold improvement)”.

For “DGVKLCERASQTWSGHCGNTKHCDNQCKSWEKAKHGACHVRSGKHKCFCYFNC (Defensin like) [L7-58]”, the “Activity (1): antifungal activity” value in experiment [1] was “+++ (+++ indicates a >10-fold improvement)”. In addition, in experiment [2] (setting [5]), the “Antifungal activity, Mycosphaerella fijiensis (improvement compared to DmAMP1)” value was “+ (+ indicating 1- to 5-fold improvement compared to DmAMP1)”. In experiment [3] (setting [5]), the “Antifungal activity, Septoria tritici (improvement compared to DmAMP1)” value was “+ (+ indicating 1- to 5-fold improvement compared to DmAMP1)”. The “Antifungal activity, Fusarium graminearum (improvement compared to DmAMP1)” value in experiment [4] (setting [6]) is on record as “+ (+ indicating 1- to 5-fold improvement compared to DmAMP1)”.

For “DGVKLCERASQTWTGHCGNTKHCDKQCKNWEGAKHGACHKRNGKWKCFCYFNC (Defensin like) [L7-432]”, in experiment [1], the “Activity (1): antifungal activity” value is “+++ (+++ indicates a >10-fold improvement)”. Also, in experiment [2] (setting [5]), the “Antifungal activity, Mycosphaerella fijiensis (improvement compared to DmAMP1)” value is given as “+++ (+++ indicating >10-fold improvement)”. In experiment [3] (setting [5]), the “Antifungal activity, Septoria tritici (improvement compared to DmAMP1)” value is recorded as “+ (+ indicating 1- to 5-fold improvement compared to DmAMP1)”. Also, in experiment [4] (setting [6]), the “Antifungal activity, Fusarium graminearum (improvement compared to DmAMP1)” value was “+++ (+++ indicating >10-fold improvement)”.

For the sequence “NLCERASKTWSGNCGNTKHCDTQCRSWEGAAHGACHKRNGKWKCFCYFNC (Defensin like) [L9-14]”, the “Antifungal activity, Mycosphaerella fijiensis (improvement compared to DmAMP1)” value in experiment [2] is “+ (key: + indicating 1- to 5-fold improvement compared to DmAMP1; ++ indicating >5- to 10-fold improvement; +++ indicating >10-fold improvement)”. For the same sequence, the “Antifungal activity, Septoria tritici (improvement compared to DmAMP1)” value in experiment [3] is “+ (key: + indicating 1- to 5-fold improvement compared to DmAMP1; ++ indicating >5- to 10-fold improvement; +++ indicating >10-fold improvement)”. Further, the “Antifungal activity, Fusarium graminearum (improvement compared to DmAMP1)” value in experiment [4] was “++ (key: + indicating 1- to 5-fold improvement compared to DmAMP1; ++ indicating >5- to 10-fold improvement; +++ indicating >10-fold improvement)”.

For “NLCERASKTWSGNCGNTKHCDTQCRSWEGAAHGACHKRSGKWKCFCYFNC (Defensin like) [L9-41]”, the “Antifungal activity, Mycosphaerella fijiensis (improvement compared to DmAMP1)” value in experiment [2] is recorded as “+ (key: + indicating 1- to 5-fold improvement compared to DmAMP1; ++ indicating >5- to 10-fold improvement; +++ indicating >10-fold improvement)”. In experiment [3], the “Antifungal activity, Septoria tritici (improvement compared to DmAMP1)” value is given as “+ (key: + indicating 1- to 5-fold improvement compared to DmAMP1; ++ indicating >5- to 10-fold improvement; +++ indicating >10-fold improvement)”. Besides, the “Antifungal activity, Fusarium graminearum (improvement compared to DmAMP1)” value in experiment [4] is recorded as “++ (key: + indicating 1- to 5-fold improvement compared to DmAMP1; ++ indicating >5- to 10-fold improvement; +++ indicating >10-fold improvement)”.

Turning to “NLCERASKTWTGNCGNTKHCDNQCKSWEGAAHGACHVRNGKHKCFCYFNC (Defensin like) [L5-24]”, the “Antifungal activity, Mycosphaerella fijiensis (improvement compared to DmAMP1)” value in experiment [2] was “+ (key: + indicating 1- to 5-fold improvement compared to DmAMP1; ++ indicating >5- to 10-fold improvement; +++ indicating >10-fold improvement)”. Also, the “Antifungal activity, Septoria tritici (improvement compared to DmAMP1)” value in experiment [3] was “++ (key: + indicating 1- to 5-fold improvement compared to DmAMP1; ++ indicating >5- to 10-fold improvement; +++ indicating >10-fold improvement)”. Further, the “Antifungal activity, Fusarium graminearum (improvement compared to DmAMP1)” value in experiment [4] is “+++ (key: + indicating 1- to 5-fold improvement compared to DmAMP1; ++ indicating >5- to 10-fold improvement; +++ indicating >10-fold improvement)”.

“NLCERASKTWTGNCGNTKHCDNQCKSWEGAAHGACHVRSGKHKCFCYFNC (Defensin like) [L6-39]”: in experiment [2], the “Antifungal activity, Mycosphaerella fijiensis (improvement compared to DmAMP1)” value is recorded as “+ (key: + indicating 1- to 5-fold improvement compared to DmAMP1; ++ indicating >5- to 10-fold improvement; +++ indicating >10-fold improvement)”. Moreover, in experiment [3], the “Antifungal activity, Septoria tritici (improvement compared to DmAMP1)” value was “++ (key: + indicating 1- to 5-fold improvement compared to DmAMP1; ++ indicating >5- to 10-fold improvement; +++ indicating >10-fold improvement)”. For the same sequence, the “Antifungal activity, Fusarium graminearum (improvement compared to DmAMP1)” value in experiment [4] is on record as “+++ (key: + indicating 1- to 5-fold improvement compared to DmAMP1; ++ indicating >5- to 10-fold improvement; +++ indicating >10-fold improvement)”.

Regarding “NLCERASKTWTGNCGNTKHCDNQCRNWEGAAHGACHVRSGKHKCFCYFNC (Defensin like) [L6-85]”, the “Antifungal activity, Mycosphaerella fijiensis (improvement compared to DmAMP1)” value in experiment [2] was “+ (key: + indicating 1- to 5-fold improvement compared to DmAMP1; ++ indicating >5- to 10-fold improvement; +++ indicating >10-fold improvement)”. Also, the “Antifungal activity, Septoria tritici (improvement compared to DmAMP1)” value in experiment [3] is “+ (key: + indicating 1- to 5-fold improvement compared to DmAMP1; ++ indicating >5- to 10-fold improvement; +++ indicating >10-fold improvement)”. The “Antifungal activity, Fusarium graminearum (improvement compared to DmAMP1)” value in experiment [4] was “+++ (key: + indicating 1- to 5-fold improvement compared to DmAMP1; ++ indicating >5- to 10-fold improvement; +++ indicating >10-fold improvement)”.

Consider “NLCERASKTWTGNCGNTKHCDTQCRSWEGAAHGACHVRSGKHKCFCYFNC (Defensin like) [L5-23]”, for which the “Antifungal activity, Mycosphaerella fijiensis (improvement compared to DmAMP1)” value in experiment [2] is on record as “+ (key: + indicating 1- to 5-fold improvement compared to DmAMP1; ++ indicating >5- to 10-fold improvement; +++ indicating >10-fold improvement)”. In addition, the “Antifungal activity, Septoria tritici (improvement compared to DmAMP1)” value in experiment [3] is recorded as “+ (key: + indicating 1- to 5-fold improvement compared to DmAMP1; ++ indicating >5- to 10-fold improvement; +++ indicating >10-fold improvement)”. Moreover, in experiment [4], the “Antifungal activity, Fusarium graminearum (improvement compared to DmAMP1)” value is given as “+ (key: + indicating 1- to 5-fold improvement compared to DmAMP1; ++ indicating >5- to 10-fold improvement; +++ indicating >10-fold improvement)”.
